# Patent US20220169632A1, “METHODS AND MATERIALS FOR INCREASING OR MAINTAINING NICOTINAMIDE MONONUCLEOTIDE ADENYLYL TRANSFERASE-2 (NMNAT2) POLYPEPTIDE LEVELS” (University of Pittsburgh - Of the Commonwealth System of …, priority 2019, published 2022)
# Test system: NMNAT2
# Test: NMNAT2-Hibit nano-luciferase activity in stably transfected U87MG cells, various concentrations, 24 hours
# Format: cell-based
# Details: U87MG cells stably transfected with NMNAT2-Hibit luc plasmid
# Experimental: Selected compounds were tested in vitro. U87MG cells were stably transfected with NMNAT2-Hibit luc plasmid. Cells were treated with a test compound at various concentrations for 24 hours. Cells were then collected and assayed for nano-luciferase activity.
row,Compound,E: compound efficacy for NMNAT2 activation (concentration giving >25% increase in NMNAT2 luciferase activity)
1,COc1cccc(CNC(=O)c2ccc3c(c2)c(C)c(C)n3Cc2ccccc2F)c1 [BC20196],+ (“+” >25% increase in NMNAT2 luciferase activity at >25 μM.)
2,Cc1ccc(CNC(=O)C2CCc3c(c4ccccc4n3CC(=O)NCc3ccco3)C2)o1 (centres unmarked) [BC20236],++ (“++” >25% increase in NMNAT2 luciferase activity at >1 μM ≤25 μM.)
3,COc1ccccc1CNC(=O)C1CCc2c(c3ccccc3n2Cc2cc(C)ccc2C)C1 (centres unmarked) [BC20187],+ (“+” >25% increase in NMNAT2 luciferase activity at >25 μM.)
4,Cc1cccc(CNC(=O)C2CCc3c(c4ccccc4n3CC(=O)NCc3ccco3)C2)c1 (centres unmarked) [BC20239],++ (“++” >25% increase in NMNAT2 luciferase activity at >1 μM ≤25 μM.)
5,Cc1c(C)n(Cc2ccccc2F)c2ccc(C(=O)NC(C)Cc3ccco3)cc12 (centres unmarked) [BC20244],+ (“+” >25% increase in NMNAT2 luciferase activity at >25 μM.)
6,Cc1cccc(CNC(=O)CCCc2cn(Cc3cccc(F)c3)c3ccccc23)c1 [BC20141],+ (“+” >25% increase in NMNAT2 luciferase activity at >25 μM.)
7,CCCCN(CC)Cc1ccc(CNC(=O)C2CCc3c(c4ccccc4n3Cc3cccc(F)c3)C2)o1 (centres unmarked) [BC20259],+++ (“+++” >25% increase in NMNAT2 luciferase activity at ≤1 μM.)
8,COc1cccc(CNC(=O)CCCc2cn(Cc3ccccc3F)c3ccccc23)c1 [BC20128],++ (“++” >25% increase in NMNAT2 luciferase activity at >1 μM ≤25 μM.)
9,Cc1ccc(Cn2c3c(c4ccccc42)C(C(=O)NCc2ccco2)CCC3)cc1 (centres unmarked) [BC20383],+ (“+” >25% increase in NMNAT2 luciferase activity at >25 μM.)
10,COc1ccccc1CNC(=O)c1ccc2c(c1)c(C)c(C)n2Cc1cccc(F)c1 [BC20115],++ (“++” >25% increase in NMNAT2 luciferase activity at >1 μM ≤25 μM.)
11,COc1cccc(CNC(=O)Cn2cc(C(=O)c3ccc(Cl)cc3)c3ccccc32)c1 [BC20181],++ (“++” >25% increase in NMNAT2 luciferase activity at >1 μM ≤25 μM.)
12,Cc1ccc(CNC(=O)N2CCc3c(c4ccccc4n3Cc3cccc(F)c3)C2)cc1 [BC20331],+ (“+” >25% increase in NMNAT2 luciferase activity at >25 μM.)
13,O=C(NCc1cccnc1)C1CCc2c(c3ccccc3n2Cc2cccc(F)c2)C1 (centres unmarked) [BC20258],++ (“++” >25% increase in NMNAT2 luciferase activity at >1 μM ≤25 μM.)
14,O=C1c2cccc3c2c(cn3Cc2cccc(F)c2)CCN1CCOc1ccc(F)cc1 [BC20342],+ (“+” >25% increase in NMNAT2 luciferase activity at >25 μM.)
15,Cc1c(C)n(Cc2cccc(F)c2)c2ccc(C(=O)N3CCc4occc4C3)cc12 [BC20250],++ (“++” >25% increase in NMNAT2 luciferase activity at >1 μM ≤25 μM.)
16,Cc1ccc(CNC(=O)CCCc2cn(Cc3ccccc3F)c3ccccc23)o1 [BC20122],++ (“++” >25% increase in NMNAT2 luciferase activity at >1 μM ≤25 μM.)
17,O=C(CCCc1cn(Cc2ccccc2F)c2ccccc12)NCc1cccnc1 [BC20132],++ (“++” >25% increase in NMNAT2 luciferase activity at >1 μM ≤25 μM.)
18,Cc1ccc(CNC(=O)c2ccc3c(c2)c(C)c(C)n3Cc2ccccc2C)o1 [BC20200],++ (“++” >25% increase in NMNAT2 luciferase activity at >1 μM ≤25 μM.)
19,COc1cccc(CNC(=O)C2CCc3c(c4ccccc4n3Cc3cccc(F)c3)C2)c1 (centres unmarked) [BC20226],+ (“+” >25% increase in NMNAT2 luciferase activity at >25 μM.)
20,CCCCN(CC)Cc1ccc(CNC(=O)c2ccc3c(c2)c(C)c(C)n3Cc2ccccc2F)o1 [BC20198],+++ (“+++” >25% increase in NMNAT2 luciferase activity at ≤1 μM.)
21,Cc1c(C)n(Cc2cccc(F)c2)c2ccc(C(=O)NCc3ccco3)cc12 [BC20101],+++ (“+++” >25% increase in NMNAT2 luciferase activity at ≤1 μM.)
22,O=C(NCc1ccncc1)C1CCc2c(c3ccccc3n2Cc2cccc(F)c2)C1 (centres unmarked) [BC20228],++ (“++” >25% increase in NMNAT2 luciferase activity at >1 μM ≤25 μM.)
23,Cc1ccc(CNC(=O)CCCc2cn(Cc3cccc(F)c3)c3ccccc23)o1 [BC20136],++ (“++” >25% increase in NMNAT2 luciferase activity at >1 μM ≤25 μM.)
24,Cc1ccc(C)c(Cn2c3c(c4ccccc42)CN(C(=O)NCc2ccco2)CC3)c1 [BC20243],+++ (“+++” >25% increase in NMNAT2 luciferase activity at ≤1 μM.)

row,Compound,E: compound efficacy for NMNAT2 activation (concentration giving >25% increase in NMNAT2 luciferase activity)
1,O=C1c2cccc3c2c(cn3Cc2cccc(F)c2)CCN1CCOc1ccccc1 [BC20341],+ (“+” >25% increase in NMNAT2 luciferase activity at >25 μM.)
2,Cc1cccc(Cn2cc(CCCC(=O)NCc3ccncc3)c3ccccc32)c1 [BC20174],++ (“++” >25% increase in NMNAT2 luciferase activity at >1 μM ≤25 μM.)
3,O=C(CCCc1cn(Cc2cccc(F)c2)c2ccccc12)NCc1ccccc1F [BC20138],++ (“++” >25% increase in NMNAT2 luciferase activity at >1 μM ≤25 μM.)
4,O=C(Nc1cc(F)ccc1F)N1CCc2c(c3ccccc3n2Cc2cccc(F)c2)C1 [BC20361],++ (“++” >25% increase in NMNAT2 luciferase activity at >1 μM ≤25 μM.)
5,O=C(c1ccco1)N1CCN(C(=O)C2CCCc3c2c2ccccc2n3Cc2cccc(F)c2)CC1 (centres unmarked) [BC20376],+ (“+” >25% increase in NMNAT2 luciferase activity at >25 μM.)
6,Cc1c(C)n(Cc2ccccc2)c2ccc(C(=O)N3CCc4occc4C3)cc12 [BC20307],+ (“+” >25% increase in NMNAT2 luciferase activity at >25 μM.)
7,O=C(NCc1ccco1)C1CCc2c(c3ccccc3n2Cc2cccc(F)c2)C1 (centres unmarked) [BC20220],++ (“++” >25% increase in NMNAT2 luciferase activity at >1 μM ≤25 μM.)
8,Cc1ccc(C)c(Cn2c(C(F)F)c(C3CC(=O)Nc4cccc(C)c43)c3ccccc32)c1 (centres unmarked) [BC20405],++ (“++” >25% increase in NMNAT2 luciferase activity at >1 μM ≤25 μM.)
9,Cc1ccc(Cn2cc([C@H]3C[C@@H]3C(=O)NCc3cccc(C)c3)c3ccccc32)cc1 (racemic) [BC20297],+ (“+” >25% increase in NMNAT2 luciferase activity at >25 μM.)
10,Cc1cccc(Cn2cc(CCCC(=O)NC(C)Cc3ccco3)c3ccccc32)c1 (centres unmarked) [BC20171],+++ (“+++” >25% increase in NMNAT2 luciferase activity at ≤1 μM.)
11,Cc1ccc(C)c(Cn2c(C(F)F)c(CCC(=O)N3CCN(C(=O)c4ccco4)CC3)c3ccccc32)c1 [BC20400],++ (“++” >25% increase in NMNAT2 luciferase activity at >1 μM ≤25 μM.)
12,CCCCN(CC)Cc1ccc(CNC(=O)C2CCCc3c2c2ccccc2n3Cc2cccc(F)c2)o1 (centres unmarked) [BC20381],++ (“++” >25% increase in NMNAT2 luciferase activity at >1 μM ≤25 μM.)
13,O=C(NCCc1ccccc1)C1CCc2c(c3ccccc3n2Cc2cccc(F)c2)C1 (centres unmarked) [BC20227],++ (“++” >25% increase in NMNAT2 luciferase activity at >1 μM ≤25 μM.)
14,Cc1ccc(Cn2cc(C3CCN(Cc4ccncc4)C(=O)C3)c3ccccc32)cc1 (centres unmarked) [BC20267],++ (“++” >25% increase in NMNAT2 luciferase activity at >1 μM ≤25 μM.)
15,O=C1NCCc2cn(Cc3cccc(F)c3)c3cccc1c23 [BC20315],+ (“+” >25% increase in NMNAT2 luciferase activity at >25 μM.)
16,Cc1ccccc1CCN1CCc2cn(Cc3cccc(F)c3)c3cccc(c23)C1=O [BC20314],+ (“+” >25% increase in NMNAT2 luciferase activity at >25 μM.)
17,O=C1CC(c2cn(Cc3cccc(F)c3)c3ccccc23)CCN1Cc1cccc(F)c1 (centres unmarked) [BC20319],+ (“+” >25% increase in NMNAT2 luciferase activity at >25 μM.)
18,Cc1ccc(Cn2c3c(c4ccccc42)C(C(=O)NCC2CCCO2)CCC3)cc1 (centres unmarked) [BC20384],+ (“+” >25% increase in NMNAT2 luciferase activity at >25 μM.)
19,Cc1ccc(C)c(Cn2cc([C@H]3C[C@@H]3C(=O)NCc3ccco3)c3ccccc32)c1 (racemic) [BC20344],+ (“+” >25% increase in NMNAT2 luciferase activity at >25 μM.)
20,Cc1ccccc1Cn1c(C)c(C)c2cc(C(=O)NCc3ccncc3)ccc21 [BC20209],++ (“++” >25% increase in NMNAT2 luciferase activity at >1 μM ≤25 μM.)
21,O=C(CCCc1cn(Cc2cccc(F)c2)c2ccccc12)NCC1CCCO1 (centres unmarked) [BC20137],++ (“++” >25% increase in NMNAT2 luciferase activity at >1 μM ≤25 μM.)
22,Cc1ccc(C)c(Cn2c(C(F)F)c(CCC(=O)NCc3ccc(C)o3)c3ccccc32)c1 [BC20367],++ (“++” >25% increase in NMNAT2 luciferase activity at >1 μM ≤25 μM.)
23,O=C(CCCc1cn(Cc2cccc(F)c2)c2ccccc12)NCc1ccncc1 [BC20148],++ (“++” >25% increase in NMNAT2 luciferase activity at >1 μM ≤25 μM.)
